Data taken from ChEMBL document CHEMBL4321815, “Discovery of an Extremely Potent Thiazine-Based β-Secretase Inhibitor with Reduced Cardiovascular and Liver Toxicity at a Low Projected Human Dose” (J Med Chem, 2019).

What was measured:
Homo sapiens = test: In vivo inhibition of BACE1 in human assessed as reduction in amyloidbeta level at 30 mg administered once daily after 14 days MSD electrochemiluminescent immunoassay relative to control; type: functional
[1] = Hepatotoxicity in Beagle dog assessed as increase in alanine aminotransferase level at 50 mg/kg/day, po administered for 2 weeks; type: toxicity, organism-based, Canis lupus familiaris; settings: in vivo, 336 h
[2] = Hepatotoxicity in po dosed Beagle dog assessed as induction of inflammatory cell infiltration of centrilobular hepatocytes at highest dose administered for 2 weeks; type: toxicity, organism-based, Canis lupus familiaris; settings: in vivo, 336 h

Question: What does the source list for `C[C@@]1(c2cc(NC(=O)c3ccc(C#N)cn3)ccc2F)C=CSC(N)=N1` [ATABECESTAT]?
Answer: inhibition (INH) (Homo sapiens): 80%; Activity [1]: Toxic; Activity [2]: Toxic
